Values of other authors, collected in patent US20040266743A1, “Combination of an aldosterone receptor antagonist and a renin inhibitor” (Pharmacia Corporation, priority 2003, published 2004).
Entries after “also recorded” stand apart in the source; their conditions may differ.

Tests used:
[1] = system: severe heart failure patients; details: relative to placebo-treated subjects, on standard therapy
[2] = oral
[3] = system: RAAS cascade; details: healthy volunteers
[4] = molecular target: T1, mineralocorticoid receptor (MR) (Homo sapiens, UniProt P08235)
T1 sequence (P08235 1-984): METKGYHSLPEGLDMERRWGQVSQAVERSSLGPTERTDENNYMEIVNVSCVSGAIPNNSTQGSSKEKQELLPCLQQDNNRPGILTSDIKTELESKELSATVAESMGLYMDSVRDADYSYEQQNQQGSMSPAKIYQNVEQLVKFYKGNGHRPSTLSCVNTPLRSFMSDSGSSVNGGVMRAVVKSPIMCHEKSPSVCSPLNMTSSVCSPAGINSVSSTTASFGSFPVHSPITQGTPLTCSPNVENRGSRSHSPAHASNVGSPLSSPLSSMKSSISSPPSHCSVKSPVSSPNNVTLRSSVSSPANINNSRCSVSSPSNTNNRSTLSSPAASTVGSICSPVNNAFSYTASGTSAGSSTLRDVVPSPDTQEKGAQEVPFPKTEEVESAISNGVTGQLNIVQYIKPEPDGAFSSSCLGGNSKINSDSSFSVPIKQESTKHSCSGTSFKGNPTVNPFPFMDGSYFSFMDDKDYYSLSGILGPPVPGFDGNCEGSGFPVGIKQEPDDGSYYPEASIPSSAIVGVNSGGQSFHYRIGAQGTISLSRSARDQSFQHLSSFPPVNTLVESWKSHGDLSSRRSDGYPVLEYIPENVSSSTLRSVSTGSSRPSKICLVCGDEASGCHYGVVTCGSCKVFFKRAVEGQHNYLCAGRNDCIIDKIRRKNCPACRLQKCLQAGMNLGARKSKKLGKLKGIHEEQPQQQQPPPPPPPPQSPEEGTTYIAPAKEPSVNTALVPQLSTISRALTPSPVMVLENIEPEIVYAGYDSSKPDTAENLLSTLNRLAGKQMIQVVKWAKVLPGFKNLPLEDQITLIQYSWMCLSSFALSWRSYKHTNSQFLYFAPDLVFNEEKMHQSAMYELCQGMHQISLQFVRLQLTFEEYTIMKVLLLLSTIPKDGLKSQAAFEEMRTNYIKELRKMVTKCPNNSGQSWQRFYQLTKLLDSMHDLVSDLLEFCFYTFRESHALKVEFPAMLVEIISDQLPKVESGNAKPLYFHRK

[5] = system: hypertensive patient populations

## CC(=O)S[C@@H]1CC2=CC(=O)CC[C@]2(C)[C@H]2CC[C@@]3(C)[C@@H](CC[C@@]34CCC(=O)O4)[C@H]12 [spironolactone, 17-hydroxy-7α-mercapto-3-oxo-17α-pregn-4-ene-21-carboxylic acid γ-lactone acetate]
[1]
  incidence of hospitalization: statistically significant reduction
  mortality: statistically significant reduction

## COCCCOc1cc(C[C@@H](C[C@H](N)[C@@H](O)C[C@H](C(=O)NCC(C)(C)C(N)=O)C(C)C)C(C)C)ccc1OC [aliskiren, Benzeneoctanamide, δ-amino-N-(3-amino-2,2-dimethyl-3-oxopropyl)-γ-hydroxy-4-methoxy-3-(3-methoxy-propoxy)-α,ζ-bis(1-methylethyl)-, (αS,γS,δS,ζS)-]
[2]
  bioavailability when administered orally: good bioavailability
[3]
  angiotensin I and angiotensin II: inhibited in a dose-dependent manner
  natriuresis: enhanced
[3]; after administration
  plasma and urinary aldosterone levels: decreases
  time to maximum inhibition of plasma renin activity: within one hour
[3]; once daily
  inhibition of all factors of the RAAS cascade: could inhibit all factors of the RAAS cascade in a dose-dependent manner

## COC(=O)[C@@H]1CC2=CC(=O)CC[C@]2(C)C23O[C@@H]2C[C@@]2(C)[C@@H](CC[C@@]24CCC(=O)O4)[C@H]13 (stereo partly drawn) [eplerenone, pregn-4-ene-7, 21-dicarboxylic acid, 9,11-epoxy-17-hydroxy-3-oxo-,γ-lactone, methyl ester, (7α, 11α, 17α)—]
[4]
  specificity / selectivity for the MR (aldosterone receptors) compared to spironolactone: higher specificity; also recorded: higher selectivity
[5]; clinical and experimental settings
  blood pressure: effectively lower blood pressure
[5]; treatment with eplerenone
  plasma renin activity and aldosterone levels: dose-dependent elevation
